Tests used:
BAF3-bcl2 G21 cells = test: Apoptosis induction (DNA fragmentation) in BAF3-bcl2 clone G21, 24 h; assay type: cell-based, mouse
Protocol: (§1) The BAF3-bcl2 cells correspond to BAF3 cells (mouse lymphocyte cells) tranfected with the bcl2 gene. Among these cells, four lines known as H16, G18, B14 and G21 overexpress the bcl2 gene.
Whereas the BAF3-b0 cells undergo apoptosis (more than 80% of the cells) in the absence of interleukin 3 (IL3) in 16 hours [according to Collins, M. K. L., Marvel, J., Malde, P. & Lopez-Rivas, A., J. Exp. Med. 176, 1043-1051, (1992)], the BAF3-bcl2 cells show no sign of apoptosis in the absence of IL3. They are thus apoptosis-resistant.
(§2) The procedure which was used is as follows: • The BAF3-b0 or BAF3-bcl2 cells, cultured in the presence of IL3, were labelled by a method adapted from that disclosed in Wright, S. et al., J. of Cell. Biochem. 48, 344-355, (1992).
(§3) 10^5 cells/ml were incubated with 4.62 KBq.ml^−1 [^3H]-thymidine for 40 hours at 37° C. After two washes with culture medium, 2.5×10^6 cells were cultured in the presence of the test compound.
(§4) After incubating for 24 hours, these cells were recovered by centrifugation at 400×g for 5 minutes and washed 3 times with PBS buffer. The cells recovered in the pellet were lysed in 2 ml of 0.1% Triton X-100, 20 mM EDTA, 5 mM Tris pH 8 and centrifuged at 30 000×g at 4° C. for 30 minutes.
(§5) The supernatants were recovered and the pellets dissolved in 0.3 ml of 0.5N NaOH.
(§6) Aliquots of the culture medium (1 ml), of the supernatant (0.3 ml) and of the dissolved pellet (0.1 ml) were assayed in a scintillation counter.
(§7) The percentage of DNA fragments is calculated in the following way:
(§8) The percentage of fragmentation of the DNA is a direct measure of the apoptosis which the cells have undergone.

L1210T cells = test: Growth of L1210T cells (L1210 bearing human ALDH1 cDNA); assay type: cell-based, mouse; settings: 50% inhibition of growth
Protocol: (§9) The cells used correspond to various cell lines: human lung normal embryonic fibroblasts (MRC5), mouse melanoma cells (B16), mouse lymphocytic leukaemia cells (L1210) and L1210T cells obtained by infecting L1210 cells with a retroviral vector bearing human ALDH1 cDNA.
The procedure used for the tests on the L1210 cells is as follows: • 10^5 cells are incubated in the various wells of a microplate in 1 ml of culture medium. After incubating for 4 hours, the test compounds are added to the wells containing the L1210 cells.
For the L1210 cells, the growth is measured by counting the viable cells in the presence of 0.1% Trypan blue.
(§10) The IC50 concentration is the concentration corresponding to a 50% inhibition of growth of the cells.

ALDH1 = test: Effect on the activity of ALDH1 after preincubation; assay type: biochemical, baker's yeast; settings: 400 μM
Protocol: The procedure used is given below: 260 mU of ALDH from baker's yeast are preincubated at 37 or 0° C. in a mixture of 1 mM EDTA, 100 mM KCl, in 60 mM of sodium phosphate buffer pH 6 in a final volume of 200 μl.
To each tube containing the 200 μl of mixture, the test compound is added to a concentration of 400 μM, with the exception of a control series which contains no test compound.
The incubation carried out at 0° C. or at 37° C. is stopped by adding 100 μg of BSA (bovine serum albumin) and acetone at −20° C. to a final concentration of 80% in order to precipitate the proteins (ALDH and BSA). The tubes are left at −20° C. for 1 hour and then centrifuged at 10 000 rpm for 10 minutes and washed with 80% acetone. […]
The reaction is started by adding 2 mM of propanal and the optical density (OD) is measured at 340 nm at T=0 and at T=5, 10, 20 and 30 minutes.
The activity of the enzyme is measured by the variation in optical density Δ OD per minute (Quash G. et al., Enzymology and molecular biology of carbonyl metabolism, Weiner et al. eds., Kluwer Academic/Plenum Publishers, New York, 97-106).
The percentage activity (A %) of the ALDH1 enzyme obtained at different preincubation times with the compound of Example 1 at 0° C. […] (represented by Δ) is measured as a function of the time t (expressed in minutes).

[1] = test system: normal human prostate cells; test: Combination of two compounds of the invention on normal human prostate cells; assay type: cell-based; settings: 2 μM
Protocol: (§11) 10^5 normal human prostate cells or 10^5 cancerous human prostate cells (DU145) are incubated in various wells of a microplate in 1 ml of culture medium.
(§12) The compounds are added 4 hours after placing the cells in the wells.
(§13) After 72 hours, the cells are removed at different times. The DU145 cells or the normal cells are washed twice with PBS and recovered directly with 0.1M sodium chloride.
(§14) The effect on the growth of the DU145 cells or the normal cells is measured by protein assay according to the Lowry method (Lowry, O. H., Rosenbrough, N. J., Farr, A. L. and Randall, J. Biol. Chem. 193, 265-275, (1951)) and DNA assay by the Hoechst method (West, D. C., Sattar, A. and Kumar, S., Anal. Biochem. 147, 289-295, (1985)).

MRC5 cells = test: Growth of MRC5 cells (protein and DNA assay); assay type: cell-based, human; settings: 50% inhibition of growth
Protocol: as §9
The procedure used for the tests on the B16 and MRC5 cells is as follows: • The test compounds are added 4 hours after placing the cells in the wells. After 72 hours, the cells are removed at different times. The B16 and MRC5 cells are washed twice with PBS and recovered directly with 0.1M sodium chloride.
as §14, with “B16 and MRC5” for “DU145 cells or the normal”
as §10

DU145 cells = test: Combination of two compounds of the invention on the growth of DU145 cells; assay type: cell-based, human; settings: 2 μM
Protocol: as §11, §12, §13, §14

bcl2 H16 cells = test: DNA fragmentation of bcl2 H16 cells, 6 h incubation; assay type: cell-based, mouse
Protocol: as §1, §2, §3, §4, §5, §6, §7, §8
The procedure for the test given in Table 4 below is identical to the previous procedure except that the incubation time is 6 hours instead of 24 hours: […]

Q: Which “DNA fragmentation (%)” value (BAF3-bcl2 G21 cells; G21, 1 μM) does the source give for CSC(=O)C#CC(C)(C)N(C)C [Example 1, S-methyl 4-dimethyl-amino-4-methyl-2-pentynethioate] here?
A: Its value is 0%.

Q: And the “DNA fragmentation (%)” value (BAF3-bcl2 G21 cells; G21, 2 μM)?
A: The value was 5.8%.

Q: And the “DNA fragmentation (%)” value (BAF3-bcl2 G21 cells; G21, 4 μM)?
A: Its value is 29.3%.

Q: What about the “DNA fragmentation (%)” value (BAF3-bcl2 G21 cells; G21, 8 μM) of the same compound?
A: The value was 71.8%.

Q: What about the IC50 (L1210T cells) of the same compound?
A: The IC50 was 1.6 µM.

Q: And the “Inhibition of the activity of the ALDH1 enzyme” value (ALDH1; pre-incubation at 0° C.)?
A: The value was “no effect of inhibition”.

Q: And the “Inhibition of the activity of the ALDH1 enzyme” value (ALDH1; pre-incubation at 37° C.)?
A: The value was “an effect of inhibition of the activity of the enzyme is observed”.

Q: What about the “% Inhibition of normal human prostate cells” value [1] of the same compound?
A: The value was 3.7%.

Q: What about the IC50 (MRC5 cells) of the same compound?
A: The IC50 was 8.4 µM.

Q: And the “% Inhibition of DU145 cells” value (DU145 cells)?
A: The value was 21.3%.

Q: What about the “% fragmentation of the DNA of the bcl2 H16 cells” value (from here on “% fragmentation”) (bcl2 H16 cells; 50 μM) of the same compound?
A: Its value is 2.15%.

Q: What about the “% fragmentation” value (bcl2 H16 cells; 100 μM) of the same compound?
A: The value was 0%.

Q: And the “% fragmentation” value (bcl2 H16 cells; 200 μM)?
A: The value was 30.4%.

Q: And the “% fragmentation” value (bcl2 H16 cells; 400 μM)?
A: Its value is 83.8%.

Q: And the “% fragmentation” value (bcl2 H16 cells; 600 μM)?
A: The value was 81.5%.
